{"source": "ChEMBL document CHEMBL1201862", "about": "“PubChem BioAssay data set” (2004)", "key": {"[1]": {"target": "Tyrosine-protein phosphatase non-receptor type 12 (Homo sapiens, UniProt Q05209)", "sequence (Q05209 whole entry)": "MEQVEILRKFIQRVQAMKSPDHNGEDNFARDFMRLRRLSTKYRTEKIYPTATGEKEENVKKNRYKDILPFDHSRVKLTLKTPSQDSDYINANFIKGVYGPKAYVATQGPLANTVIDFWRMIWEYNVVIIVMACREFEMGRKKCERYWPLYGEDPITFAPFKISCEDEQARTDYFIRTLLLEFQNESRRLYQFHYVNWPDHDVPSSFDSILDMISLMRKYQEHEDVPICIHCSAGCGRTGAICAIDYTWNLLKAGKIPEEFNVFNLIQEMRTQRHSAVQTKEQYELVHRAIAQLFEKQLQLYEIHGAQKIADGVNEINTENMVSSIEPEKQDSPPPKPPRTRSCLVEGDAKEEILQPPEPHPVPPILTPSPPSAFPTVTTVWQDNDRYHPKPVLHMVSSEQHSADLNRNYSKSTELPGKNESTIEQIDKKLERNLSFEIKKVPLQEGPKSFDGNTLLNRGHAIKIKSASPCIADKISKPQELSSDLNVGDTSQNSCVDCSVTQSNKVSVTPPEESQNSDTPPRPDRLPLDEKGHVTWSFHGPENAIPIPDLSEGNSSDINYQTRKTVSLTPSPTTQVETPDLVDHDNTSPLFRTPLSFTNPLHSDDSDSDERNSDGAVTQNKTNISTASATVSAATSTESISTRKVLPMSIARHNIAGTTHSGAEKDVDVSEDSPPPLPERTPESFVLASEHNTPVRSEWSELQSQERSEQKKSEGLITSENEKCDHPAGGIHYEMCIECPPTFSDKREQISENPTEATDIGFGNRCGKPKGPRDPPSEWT", "experiment": "SAR Selectivity Analysis of small molecule inhibitors of PEST using pCAP in a fluorescence assay. [Related pubchem assays (depositor defined):AID1779, AID1784, AID2135]", "type": "functional"}, "[2]": {"target": "T1, Tyrosine-protein phosphatase non-receptor type 22 (Homo sapiens, UniProt Q9Y2R2)", "T1 sequence (Q9Y2R2 whole entry)": "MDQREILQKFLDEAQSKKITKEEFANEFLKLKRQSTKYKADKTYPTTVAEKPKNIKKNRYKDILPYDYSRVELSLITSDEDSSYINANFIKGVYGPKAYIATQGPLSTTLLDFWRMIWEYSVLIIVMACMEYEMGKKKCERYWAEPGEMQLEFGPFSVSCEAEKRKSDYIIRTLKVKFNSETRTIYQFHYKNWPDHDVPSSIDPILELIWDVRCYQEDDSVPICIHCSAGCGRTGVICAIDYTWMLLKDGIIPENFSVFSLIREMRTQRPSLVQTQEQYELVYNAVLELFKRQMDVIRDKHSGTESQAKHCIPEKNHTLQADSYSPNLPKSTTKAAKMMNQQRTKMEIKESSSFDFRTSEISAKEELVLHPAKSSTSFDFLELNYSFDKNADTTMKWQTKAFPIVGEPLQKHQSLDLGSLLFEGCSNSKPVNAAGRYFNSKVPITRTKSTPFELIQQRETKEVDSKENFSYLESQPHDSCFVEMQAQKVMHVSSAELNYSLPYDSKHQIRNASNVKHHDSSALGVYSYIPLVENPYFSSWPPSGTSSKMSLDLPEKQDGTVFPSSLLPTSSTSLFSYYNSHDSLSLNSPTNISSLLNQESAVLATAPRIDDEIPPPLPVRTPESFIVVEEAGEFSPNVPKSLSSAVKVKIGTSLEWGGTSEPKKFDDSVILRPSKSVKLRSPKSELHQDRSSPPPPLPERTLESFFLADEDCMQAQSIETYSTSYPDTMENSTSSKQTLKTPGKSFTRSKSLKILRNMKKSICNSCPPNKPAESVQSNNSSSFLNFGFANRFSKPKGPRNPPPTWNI", "experiment": "SAR LYP1 Fluorescent Assay using OMFP substrate for In Vitro dose response studies - Set 3. [Related pubchem assays (depositor defined):AID1779, AID1784, AID2140, AID2686]", "type": "functional"}, "[3]": {"target": "T2, Tyrosine-protein phosphatase non-receptor type 7 (Homo sapiens, UniProt P35236)", "T2 sequence (P35236 whole entry)": "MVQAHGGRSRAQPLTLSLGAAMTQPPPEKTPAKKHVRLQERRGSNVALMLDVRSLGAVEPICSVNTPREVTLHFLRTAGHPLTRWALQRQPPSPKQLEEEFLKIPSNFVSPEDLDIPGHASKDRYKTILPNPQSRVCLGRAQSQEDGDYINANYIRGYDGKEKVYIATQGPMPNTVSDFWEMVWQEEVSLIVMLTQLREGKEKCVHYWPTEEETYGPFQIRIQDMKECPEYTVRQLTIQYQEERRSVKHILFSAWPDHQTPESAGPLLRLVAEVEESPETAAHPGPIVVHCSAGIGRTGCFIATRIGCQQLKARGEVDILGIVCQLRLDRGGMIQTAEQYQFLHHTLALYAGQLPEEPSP", "experiment": "redox-dependent HePTP inhibition, mechanism study, biochemical, fluorescence (AID 2068)", "type": "functional"}, "[4]": {"target": "T2, Tyrosine-protein phosphatase non-receptor type 7", "experiment": "HePTP (PTPN7) phosphatase inhibitor potency, SAR follow-up, biochemical, set 2 (AID 449736)", "type": "functional"}, "[5]": {"target": "T1, Tyrosine-protein phosphatase non-receptor type 22", "experiment": "LYP (PTPN22) phosphatase inhibitor potency, SAR follow-up, biochemical, pCAP fluorogenic substrate, fluorescence, set 3 (AID 449727)", "type": "functional"}, "[6]": {"target": "T3, Dual specificity protein phosphatase 3 (Homo sapiens, UniProt P51452)", "T3 sequence (P51452 whole entry)": "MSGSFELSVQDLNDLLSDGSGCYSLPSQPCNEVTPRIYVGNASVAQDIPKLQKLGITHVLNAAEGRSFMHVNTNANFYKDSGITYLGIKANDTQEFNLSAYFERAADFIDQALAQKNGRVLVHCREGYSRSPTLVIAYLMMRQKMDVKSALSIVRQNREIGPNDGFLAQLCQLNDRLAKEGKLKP", "experiment": "SAR VHR1 Fluorescent Assay for In Vitro dose response studies Set 2. [Related pubchem assays (depositor defined):AID1654, AID1661, AID1878]", "type": "functional"}, "[7]": {"target": "T4, Dual specificity protein phosphatase 6 (Rattus norvegicus, UniProt Q64346)", "T4 sequence (Q64346 whole entry)": "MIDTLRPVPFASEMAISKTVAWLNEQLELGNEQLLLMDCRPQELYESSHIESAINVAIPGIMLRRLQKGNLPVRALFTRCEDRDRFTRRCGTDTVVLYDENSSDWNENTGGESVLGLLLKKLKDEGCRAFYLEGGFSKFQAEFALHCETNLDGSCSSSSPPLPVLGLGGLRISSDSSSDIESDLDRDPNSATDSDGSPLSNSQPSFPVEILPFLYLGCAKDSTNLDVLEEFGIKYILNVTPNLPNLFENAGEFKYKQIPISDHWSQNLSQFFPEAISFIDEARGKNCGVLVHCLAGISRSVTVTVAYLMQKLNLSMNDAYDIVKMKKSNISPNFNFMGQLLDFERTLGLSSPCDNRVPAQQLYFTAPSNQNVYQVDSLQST", "type": "functional"}, "[8]": {"target": "Tyrosine-protein phosphatase non-receptor type 11 (Homo sapiens, UniProt Q06124)", "sequence (Q06124 whole entry)": "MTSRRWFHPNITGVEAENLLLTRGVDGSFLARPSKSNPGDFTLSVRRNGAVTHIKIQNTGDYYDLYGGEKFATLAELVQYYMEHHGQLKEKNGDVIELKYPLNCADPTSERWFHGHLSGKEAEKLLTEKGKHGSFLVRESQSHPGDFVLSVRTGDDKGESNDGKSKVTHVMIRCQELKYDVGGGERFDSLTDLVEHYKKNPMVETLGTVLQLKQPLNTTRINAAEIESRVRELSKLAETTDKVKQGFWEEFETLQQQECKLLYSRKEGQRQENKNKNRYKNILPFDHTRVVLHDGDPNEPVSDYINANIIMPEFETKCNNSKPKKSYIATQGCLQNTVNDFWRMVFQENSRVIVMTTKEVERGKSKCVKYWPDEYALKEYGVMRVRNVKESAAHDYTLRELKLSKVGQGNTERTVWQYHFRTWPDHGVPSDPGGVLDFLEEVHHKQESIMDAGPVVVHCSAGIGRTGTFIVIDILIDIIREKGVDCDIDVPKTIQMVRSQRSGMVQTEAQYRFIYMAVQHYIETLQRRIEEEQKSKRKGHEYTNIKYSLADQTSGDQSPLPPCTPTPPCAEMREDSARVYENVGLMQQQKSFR", "experiment": "SHP2 phosphatase inhibition, dose response, selectivity assay for STEP inhibitor project, biochemical (AID 602367)", "type": "functional", "conditions": "read-out: IC50_Mean"}, "[9]": {"target": "Tyrosine-protein phosphatase non-receptor type 5 (Homo sapiens, UniProt P54829)", "sequence (P54829 whole entry)": "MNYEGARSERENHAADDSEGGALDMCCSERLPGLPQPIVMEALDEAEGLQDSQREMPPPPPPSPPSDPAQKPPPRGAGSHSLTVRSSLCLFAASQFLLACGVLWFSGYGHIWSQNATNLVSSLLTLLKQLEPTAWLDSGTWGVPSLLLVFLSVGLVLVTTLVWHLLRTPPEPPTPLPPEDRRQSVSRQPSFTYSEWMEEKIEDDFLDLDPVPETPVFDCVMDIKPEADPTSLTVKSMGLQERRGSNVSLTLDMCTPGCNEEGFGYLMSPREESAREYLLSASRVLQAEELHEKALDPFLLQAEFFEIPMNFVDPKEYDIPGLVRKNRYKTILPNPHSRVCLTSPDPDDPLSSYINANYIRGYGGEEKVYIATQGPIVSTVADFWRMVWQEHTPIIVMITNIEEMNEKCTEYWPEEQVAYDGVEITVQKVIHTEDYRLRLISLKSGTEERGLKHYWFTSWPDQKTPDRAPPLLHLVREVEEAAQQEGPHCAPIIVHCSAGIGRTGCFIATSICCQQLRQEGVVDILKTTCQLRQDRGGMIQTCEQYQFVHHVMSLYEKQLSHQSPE", "experiment": "STEP phosphatase inhibitors, confirmation, biochemical, fluorescence intensity, uHTS hits (AID 602372)", "type": "functional", "conditions": "read-out: IC50_Mean"}, "[10]": {"target": "T3, Dual specificity protein phosphatase 3", "experiment": "VHR phosphatase inhibition, dose response, selectivity assay for STEP inhibitor project, biochemical (AID 602374)", "type": "functional", "conditions": "read-out: IC50_Mean"}, "[11]": {"target": "T1, Tyrosine-protein phosphatase non-receptor type 22", "experiment": "PTPN22 phosphatase inhibition, dose response, selectivity assay for STEP inhibitor project, biochemical (AID 624241)", "type": "functional"}, "[12]": {"target": "Intestinal-type alkaline phosphatase (Homo sapiens, UniProt P09923)", "sequence (P09923 whole entry)": "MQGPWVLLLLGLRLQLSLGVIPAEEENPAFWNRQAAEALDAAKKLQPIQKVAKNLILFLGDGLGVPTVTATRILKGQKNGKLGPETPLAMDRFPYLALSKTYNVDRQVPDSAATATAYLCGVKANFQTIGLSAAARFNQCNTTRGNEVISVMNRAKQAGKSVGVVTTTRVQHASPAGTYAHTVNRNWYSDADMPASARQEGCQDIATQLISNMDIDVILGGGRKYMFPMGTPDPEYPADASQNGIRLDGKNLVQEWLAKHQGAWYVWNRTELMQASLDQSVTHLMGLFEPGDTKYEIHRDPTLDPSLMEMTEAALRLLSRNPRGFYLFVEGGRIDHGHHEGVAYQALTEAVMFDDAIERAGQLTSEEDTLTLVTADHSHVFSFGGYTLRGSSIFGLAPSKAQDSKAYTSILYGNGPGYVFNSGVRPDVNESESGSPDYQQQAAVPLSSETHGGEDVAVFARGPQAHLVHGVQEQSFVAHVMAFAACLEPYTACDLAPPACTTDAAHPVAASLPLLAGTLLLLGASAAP", "experiment": "human intestinal alkaline phosphatase activators, dose response, biochemical, luminescence, uHTS hits (AID 463120)", "type": "functional"}, "BJ [13]": {"test_system": "BJ", "experiment": "cytotoxicity toward BJ-TERT fibroblasts, dose response, cell-based, RAS-independent, luminescence (AID 1933)", "type": "functional", "conditions": "Homo sapiens"}, "BJ [14]": {"test_system": "BJ", "experiment": "cells", "type": "functional, cell-based", "conditions": "Homo sapiens"}, "BJ [15]": {"test_system": "BJ", "experiment": "cytotoxicity toward BJ-TERT-LT-ST fibroblasts, dose response, cell-based, RAS-independent, luminescence (AID 1935);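 further: BJ fibroblasts immortalized with TERT plus LT and ST oncogenes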", "type": "functional", "conditions": "Homo sapiens"}, "[16]": {"experiment": "cytotoxicity toward DRD oncogenic fibroblasts, dose response, cell-based, non-viral oncogenic, luminescence (AID 1934)", "type": "functional", "conditions": "Homo sapiens"}, "[17]": {"experiment": "THP-1 cell cytotoxicity, dose response, cytotoxicity control for non-replicating M. tuberculosis project (AID 489025)", "type": "functional"}, "[18]": {"experiment": "Vero E6 cell cytotoxicity, dose response, cytotoxicity control for non-replicating M. tuberculosis project, secondary assay (AID 492998)", "type": "functional, VeroE6", "conditions": "Vero C1008"}, "cells": {"experiment": "cells", "type": "functional"}}, "note": "Active and inactive are the calls of the source.", "data": [{"smiles": "CCc1ccc(NC2=NC(=O)/C(=C/c3ccc(OCC(=O)O)cc3)S2)cc1", "values": [{"measurement": "IC50", "setting": "[1]", "result": "12.6 µM (active)"}, {"measurement": "IC50", "setting": "[2]", "result": "31.7 µM (active)"}, {"measurement": "IC50", "setting": "[3]", "result": "4.53 µM (active)"}, {"measurement": "IC50", "setting": "[4]", "result": "3.25 µM (active)"}, {"measurement": "IC50", "setting": "[5]", "result": "12.9 µM (active)"}, {"measurement": "IC50", "setting": "[6]", "result": "18.9 µM (active)"}, {"measurement": "IC50", "setting": "[7]", "result": "> 100 µM (inactive)"}, {"measurement": "IC50", "setting": "[8]", "result": "9.52 µM (active)"}, {"measurement": "IC50", "setting": "[9]", "result": "24.3 µM (inactive)"}, {"measurement": "IC50", "setting": "[10]", "result": "10.4 µM (active)"}, {"measurement": "IC50", "setting": "[11]", "result": "> 100 µM (inactive)"}]}, {"smiles": "O=C(N/N=C/c1ccc2cccnc2c1)c1nc(O)c2ccccc2n1", "values": [{"measurement": "EC50", "setting": "[12]", "result": "7.78 µM (active)"}]}, {"smiles": "COC(=O)c1ccc(C(=O)NC2CCCc3c2cnn3-c2cc(F)cc(F)c2)nc1", "note": "(centres undefined)", "values": [{"measurement": "EC50", "setting": "BJ [13]", "result": "17.1 µM (active)"}, {"measurement": "EC50", "setting": "BJ [14]", "result": "24.6 µM (active)"}, {"measurement": "EC50", "setting": "BJ [15]", "result": "17.3 µM (active)"}, {"measurement": "EC50", "setting": "[16]", "result": "40 µM (active)"}, {"measurement": "CC50", "setting": "[17]", "result": "10.7 µM (active)"}, {"measurement": "CC50", "setting": "[18]", "result": "10.8 µM (active)"}, {"measurement": "IC50", "setting": "cells", "result": "2.22 µM (active)"}]}]}
